# Marks after values point to notes of the source that are not given here.
# Legend:
# [1] = test system: Pulmonary Fibrosis Induced by Bleomycin; assay: Gross pathology of lungs, pulmonary fibrosis induced by bleomycin; type: in vivo, male SD rats; conditions: test groups 2 and 3: bleomycin 7.5 mg/kg + HTHQ 50 or 200 mg/kg/day oral; day 20
# Method: Bleomycin is used to produce disease-model animals of interstitial pneumonia. The bleomycin and 2,3,5-trimethylhydroquinone-1-hexyl ether (HTHQ) as the hydroquinone derivative represented by the general formula (1) described above of the present invention were simultaneously administered to male SD rats of 10 week old after birth to examine the effect of the action. The test groups consisted of the control group to which sterile saline was administered; test group 1 to which bleomycin (7.5 mg/kg body weight) alone was administered; test group 2 to which bleomycin (7.5 mg/kg body weight) and HTHQ (50 mg/kg body weight/day) were administered in combination; and test group 3 to which bleomycin (7.5 mg/kg body weight) and HTHQ (200 mg/kg body weight/day) were administered in combination.
# In test groups 1 to 3, bleomycin was orally administered in a single dose. In test groups 2 and 3, 2,3,5-trimethylhydroquinone-1-hexyl ether (HTHQ) was daily orally administered for 10 or 20 days starting from 24 h after the administration of bleomycin. In test group 1, olive oil, which was used as a solvent of HTHQ, was daily orally administered at 10 mL/kg/day starting from 24 h after the administration of bleomycin. The number of animals in each group was 16. […]
# [2] = test system: Myocardial Disorder Induced by Doxorubicin; assay: Relative weights of the hearts, myocardial disorder induced by doxorubicin; type: in vivo, female SD rats; conditions: Test group 2: doxorubicin 13 mg/kg + HTHQ 50 mg/kg oral
# From the text: Doxorubicin is used to produce disease-model animals of cardiomyopathy. […] The recombinant human erythropoietin (rHuEPO) is mainly used in the treatment of renal anemia etc., and has the effect to protect myocardium. The test group 3 is used to confirm the presence or absence of the inhibitory effect brought about by combining HTHQ and rHuEPO on myocardial disorder. […] Recombinant human erythropoietin was daily administered to the rats in test group 3 starting from 3 days before the administration of doxorubicin by intravenous injection. The number of animals in each group was 16. 8 animals of each group were sacrificed after collecting blood on day 7 and 14 after the administration of doxorubicin, and the autopsy of the hearts, the calculation of the relative weights of the hearts, the histopathologic examination of the hearts and the hematological examination were conducted. Myocardium is hypertrophied by fibrosing and the weight of the myocardium increases, and the relative weight of the heart tends to increase. […] Also, there was no significant difference between the other groups on day 7 and 14 after the administration (p<0.05).
# [3] = test system: Creatine phosphokinase (CPK); assay: Creatine phosphokinase (CPK) value in blood, myocardial disorder induced by doxorubicin; type: in vivo, female SD rats; conditions: Test group 2: doxorubicin + HTHQ 50 mg/kg; day 14; p<0.05
# Method: Doxorubicin is used to produce disease-model animals of cardiomyopathy. The doxorubicin and 2,3,5-trimethylhydroquinone-1-hexyl ether (HTHQ) as the hydroquinone derivative represented by the general formula (1) described above of the present invention were simultaneously administered to female SD rats of 4 week old after birth to examine the effect of the action. The test groups consisted of the control group to which sterile saline was administered; test group 1 to which doxorubicin (13 mg/kg body weight) alone was administered; test group 2 to which doxorubicin (13 mg/kg body weight) and HTHQ (50 mg/kg body weight) were administered in combination; and test group 3 to which doxorubicin (13 mg/kg body weight), HTHQ (50 mg/kg body weight) and recombinant human erythropoietin (400 IU/kg body weight) were administered in combination. The recombinant human erythropoietin (rHuEPO) is mainly used in the treatment of renal anemia etc., and has the effect to protect myocardium. The test group 3 is used to confirm the presence or absence of the inhibitory effect brought about by combining HTHQ and rHuEPO on myocardial disorder.
# Doxorubicin was orally administered in a single dose to the rats in test groups 1 to 3. […]
structure (smiles),measurement,setting,value
"CCCCCCOc1cc(C)c(O)c(C)c1C [HTHQ, 2,3,5-trimethylhydroquinone-1-hexyl ether]",gross pathology of lungs (lesions),[1],alleviated
same,relative weight of the heart,"[2]; Day 7 after administration, p<0.05 vs Test group 1",0.4208 ± 0.0409^a %
same,relative weight of the heart,[2]; Day 14 after administration,0.3658 ± 0.0357%
same,creatine phosphokinase (CPK) value,[3],significantly lower compared to that of test group 1

# Source: patent US20180049996A1, “THERAPEUTIC AGENT FOR CHRONIC RESPIRATORY DISEASE AND COMPOSITION FOR INHIBITING CARDIAC FIBROSIS” (NIPPON HYPOX LABORATORIES INCORPORATED, priority 2015, published 2018)
